Results taken from publication PMC6272242, “Topical Anti-inflammatory Activity of New Hybrid Molecules of Terpenes and Synthetic Drugs” (Molecules, 2015).

Assays:
[1] = test system: gastric epithelial cells (AGS); experiment: Cytotoxicity, MTT reduction assay, AGS; assay type: cell-based; settings: Homo sapiens, Epithelial cell, confluent cultures, 24 h, read-out: IC50 ± SD, AGS
Method: (§1) The human cell lines, MRC-5 normal lung fibroblasts (CCL-171), AGS gastric epithelial adenocarcinoma cells (CRL-1739) and HepG2 hepatocellular carcinoma cells (HB-8065) were obtained from the American Type Culture Collection (ATCC, Manasas, VA, USA). The cells were grown as monolayers in the following media: MRC-5 and HepG2 in MEM and AGS in Ham F-12. The MEM medium contained 2 mM L-glutamine, 1 mM sodium pyruvate and 1.5 g/L sodium bicarbonate. Ham F-12 was supplemented with 2 mM L-glutamine and 1.5 g/L sodium bicarbonate. Both media were supplemented with 10% heat inactivated fetal bovine serum, 100 IU/mL penicillin and 100 µg/mL streptomycin in a humidified incubator with 5% CO2 in air at 37 °C. For the experiments, cells were plated at a density of 25,000 cells/mL in 96-well plates. […] Compounds were first dissolved in DMSO and then in medium. The final concentration of DMSO in the test medium and controls was 1%. […] The cell viability for each compound was calculated comparing the cell viability of the untreated controls (100%) with the cell viability of the different concentrations of each compound. Each concentration was tested in quadruplicate together with the control and repeated three times in separate experiments. Cell viability was determined at the end of the incubation by means of the MTT reduction assay. Results were converted to percentage of controls, and the IC50 values were graphically obtained from the dose-response curves. Culture media, antibiotics and fetal bovine serum were obtained from Invitrogen Corp. (Waltham, MA, USA). Other reagents were purchased from Sigma Chemical Co. For the animal experiments all values are presented as median ± SEM. Drug-induced changes were statistically estimated using the Kruskall-Wallis test for comparison between groups and testing, and the Mann-Whitney test was used in the independent data for individual comparisons. The effects were considered significant if p ≤ 0.05. For cytotoxicity experiments, each concentration was tested in quadruplicate together with the control and repeated three times in different experiments. Results are expressed as IC50 values (µM) ± S.D.

lung fibroblasts (MRC-5) = experiment: Cytotoxicity, MTT reduction assay, MRC-5; assay type: cell-based; settings: Homo sapiens, MRC5, confluent cultures, 24 h, read-out: IC50 ± SD, MRC-5
Method: as §1

hepatocytes HepG2 = experiment: Cytotoxicity, MTT reduction assay, HepG2; assay type: cell-based; settings: Homo sapiens, confluent cultures, 24 h, read-out: IC50 ± SD, HepG2
Method: as §1, with “Results were converted to percentage of controls, and the IC50 values were graphically obtained from the dose-response curves.” left out

[2] = test system: mice ear edema induced by 12-O-tetradecanoylphorbol 13-acetate; experiment: Topical anti-inflammatory effect, 12-O-tetradecanoylphorbol 13-acetate (TPA) induced ear edema in mice; assay type: in vivo; settings: 1.4 µmol/mouse; for inhibition in vivo at 1.4 µmol/animal / % TATPA ± SEM (percent reduction of the ear edema, TPA): 6 h after TPA; for inhibition in vivo at 1.4 µmol/animal: n = 8, read-out: % TATPA ± SEM (percent reduction of the ear edema, TPA); for % TATPA ± SEM (percent reduction of the ear edema, TPA): n = 8
Method: (§2) The inflammatory agent arachidonic acid (AA) and phorbol 12-myristate 13-acetate (TPA) were used to assess the anti-inflammatory effect/action mechanism of the starting compounds, new synthetic products and reference drugs. […] Adult male CF-1 mice (20–25 g), obtained from a stock maintained at the Chilean Public Health Institute, were used to assess the anti-inflammatory effect. All animals were housed in a climate- and light-controlled room with a 12 h light-dark cycle, fasted overnight before the day of the assays, with free access to water. The anti-inflammatory activity of each compound was evaluated in groups of 8 treated and 16 control mice. Due to ethical considerations, the number of animals was kept to a minimum and single dose experiments were carried out.
(§3) The pro-inflammatory agents TPA and AA, the reference drugs indomethacin and nimesulide were from Sigma. […] After 5 min, inflammation was induced by the application of 20 µL TPA or AA (5 mg/mL) in acetone. […] Control subjects only received TPA or AA. Both, the sample and the TPA or AA, were applied to the inner (10 µL) and outer (10 µL) surfaces of the right ear. The left ear only received acetone. Mice were sacrificed by cervical dislocation (after 6 h of TPA and 1 h AA), and a 6 mm diameter section of the right and left ears were cut and weighed. The weight differences between both ear sections correspond to the edema value. The percent topical anti-inflammatory activity (TA) was evaluated according to the following equation: (1) %TA=[ Wc−Ws/Wc]× 100 where Wc and Ws are the different median values of the weights of the right and the left ear sections of the control and the treated animals, respectively.
(§4) For the animal experiments all values are presented as median ± SEM. Drug-induced changes were statistically estimated using the Kruskall-Wallis test for comparison between groups and testing, and the Mann-Whitney test was used in the independent data for individual comparisons. The effects were considered significant if p ≤ 0.05. For cytotoxicity experiments, each concentration was tested in quadruplicate together with the control and repeated three times in different experiments. Results are expressed as IC50 values (µM) ± S.D.

[3] = test system: mice ear edema induced by arachidonic acid; experiment: Topical anti-inflammatory effect, arachidonic acid (AA) induced ear edema in mice; assay type: in vivo; settings: 3.2 µmol/mouse; for inhibition in vivo at 3.2 µmol/animal / % TAAA ± SEM (percent reduction of the ear edema, arachidonic acid): 1 h after AA; for inhibition in vivo at 3.2 µmol/animal: n = 8, read-out: % TAAA ± SEM (percent reduction of the ear edema, arachidonic acid); for % TAAA ± SEM (percent reduction of the ear edema, arachidonic acid): n = 8
Method: as §2, §3, §4

[4] = test system: human lung fibroblasts (MRC-5), gastric epithelial cells (AGS) and hepatocytes HepG2; experiment: Cytotoxicity, MTT reduction assay, summary over the three cell lines; assay type: cell-based; settings: for IC50: Homo sapiens, MRC-5, AGS and HepG2, 24 h, MTT, read-out: IC50 values, range over the three cell lines
Method: as §1

SMILES	IC50 [1]	IC50 (lung fibroblasts (MRC-5))	IC50 (hepatocytes HepG2)	inhibition in vivo at 1.4 µmol/animal [2]	inhibition in vivo at 3.2 µmol/animal [3]	IC50 [4]	% TATPA ± SEM (percent reduction of the ear edema, TPA) [2]	% TAAA ± SEM (percent reduction of the ear edema, arachidonic acid) [3]	Cytotoxic effect, in words ([4]; MRC-5, AGS and HepG2)	Activity in the TPA assay, in words [2]	Activity in the AA model, in words [3]
COc1ccc2cc([C@H](C)C(=O)O[C@H]3CC[C@@]4(C)C(CC[C@]5(C)C4CC=C4C6CC(C)(C)CC[C@]6(C(=O)O)CC[C@]45C)C3(C)C)ccc2c1 (stereo partly shown) [Compound 14, Oleanoyl naproxenate]	486 ± 26 µM	554 ± 22 µM	> 1000 µM	55.5 ± 5.1%	9 ± 11.3%	–	–	–	–	–	–
CC(C)Cc1ccc([C@H](C)C(=O)Oc2cc3c(cc2C(C)C)CCC2C(C)(C)CCC[C@]32C)cc1 (mixture of isomers) [Compound 6, Ferruginyl ibuprofenate]	> 1000 µM	> 1000 µM	874 ± 34 µM	47.9 ± 4.6%	14.9 ± 7.1%	≥ 874 µM	–	–	–	–	–
CC(C)c1cc2c(cc1O)[C@@]1(C)CCCC(C)(C)[C@@H]1CC2 [Compound 1, ferruginol, reference compound]	29 ± 1 µM	31 ± 2 µM	39 ± 3 µM	20.4 ± 3.1%	21 ± 2.1%	29 to 39 µM	20.4 ± 3.1 *^,a %	21.0 ± 2.1 *^,a %	strong	–	–
COc1ccc2c(c1)c(CC(=O)O)c(C)n2C(=O)c1ccc(Cl)cc1 [Indomethacin, reference compound]	–	–	–	92.9%	–	–	↑92.9 ± 13.2 %	–	–	–	–
CS(=O)(=O)Nc1ccc([N+](=O)[O-])cc1Oc1ccccc1 [Nimesulide, reference compound]	–	–	–	–	48.9%	–	–	↑48.9 ± 5.5 %	–	–	–
C=C1CCC2[C@](C)(CCC[C@]2(C)C(=O)OC)[C@H]1CC[C@@H](C)CCOC(=O)[C@@H](C)c1ccc(CC(C)C)cc1 (mixture of isomers) [Compound 9, Imbricatol-15-yl ibuprofenate methyl ester]	623 ± 39 µM	706 ± 35 µM	746 ± 38 µM	41.2 ± 6.2%	14.9 ± 7.4%	≥ 601 µM	–	–	–	–	–
COc1ccc2cc([C@H](C)C(=O)Oc3cc4c(cc3C(C)C)CCC3C(C)(C)CCC[C@]43C)ccc2c1 (stereo partly shown) [Compound 7, Ferruginyl naproxenate]	874 ± 49 µM	945 ± 56 µM	> 1000 µM	26.8 ± 3.8%	26.6 ± 4.1%	≥ 874 µM	–	–	–	–	–
CC1(C)CC[C@]2(C(=O)O)CC[C@]3(C)C(=CC[C@@H]4[C@@]5(C)CC[C@H](O)C(C)(C)[C@@H]5CC[C@]43C)[C@@H]2C1 [Compound 3, oleanolic acid, reference compound]	234 ± 16 µM	186 ± 9 µM	170 ± 5 µM	70.2 ± 8.3%	2.7 ± 7.5%	–	70.2 ± 8.3 *^,a %	–	–	active	inactive
C=C1CCC2[C@](C)(CCC[C@]2(C)C(=O)O)[C@H]1CC[C@@H](C)CCOC(=O)[C@@H](C)c1ccc(CC(C)C)cc1 (mixture of isomers) [Compound 8, Imbricatol-15-yl ibuprofenate]	23 ± 1 µM	34 ± 2 µM	79 ± 8 µM	40.3 ± 2.4%	10 ± 6%	23 to 79 µM	–	–	–	–	–
COC(=O)[C@]12CCC(C)(C)CC1C1=CCC3[C@@]4(C)CC[C@H](OC(=O)[C@@H](C)c5ccc6cc(OC)ccc6c5)C(C)(C)C4CC[C@@]3(C)[C@]1(C)CC2 (stereo partly shown) [Compound 15, Oleanoyl naproxenate methyl ester]	593 ± 31 µM	816 ± 42 µM	> 1000 µM	80%	2.7 ± 8.1%	–	80.0 ± 11.0 %	–	–	–	–
COc1cc([C@@H]2c3cc4c(cc3[C@@H](O[C@@H]3O[C@@H]5CO[C@@H](C)O[C@H]5[C@H](O)[C@H]3O)[C@H]3COC(=O)[C@H]23)OCO4)cc(OC)c1O [Etoposide, reference compound]	0.36 ± 0.02 µM	3.9 ± 0.1 µM	2.4 ± 0.1 µM	–	–	–	–	–	–	–	–
COc1ccc2cc([C@H](C)C(=O)O)ccc2c1 [Compound 5, naproxen, reference compound]	> 1000 µM	> 1000 µM	–	29.9 ± 6.2%	–	–	–	–	–	–	inactive
CC(C)Cc1ccc([C@H](C)C(=O)O[C@H]2CC[C@@]3(C)C(CC[C@]4(C)C3CC=C3C5CC(C)(C)CC[C@]5(C(=O)O)CC[C@]34C)C2(C)C)cc1 (mixture of isomers) [Compound 12, Oleanoyl ibuprofenate]	526 ± 19 µM	616 ± 32 µM	> 1000 µM	79.9%	56.8%	–	79.9 ± 10.6 %	56.8 ± 7.4 %	–	–	significant effect
COC(=O)[C@]12CCC(C)(C)CC1C1=CCC3[C@@]4(C)CC[C@H](OC(=O)[C@@H](C)c5ccc(CC(C)C)cc5)C(C)(C)C4CC[C@@]3(C)[C@]1(C)CC2 (mixture of isomers) [Compound 13, Oleanoyl ibuprofenate methyl ester]	454 ± 21 µM	402 ± 20 µM	742 ± 48 µM	47.4 ± 2.6%	19.5 ± 9.2%	–	–	–	–	–	–
